Measured values: PMC7450057, “Enhancing intracellular accumulation and target engagement of PROTACs with reversible covalent chemistry” (Nature Communications, 2020)
Several values for one entry are separate records, joined by “and”; a condition that tells them apart may be missing. Equal values may be shown once. Entries after “also recorded” stand apart in the source; their conditions may differ.

Key:
Maver-1 = experiment: IC50 in MCL cell lines (Supplementary Table 2), Maver-1; conditions: for IC50: Maver-1, triplicates; for Cell Viability (%): Maver-1 cells, replicate wells
C481S mutant BTK = target: T1, C481S mutant BTK (Homo sapiens, UniProt Q06187, C481S); experiment: BTK degradation in XLA cells overexpressing C481S mutant BTK (western blot); type: cell-based; conditions: 24 h
T1 construct: expressed in transfected cells; host or cells: XLA cells (gift from Dr. Woyach)
Procedure: XLA cells overexpressing wild-type BTK or mutant C481S BTK were plated at the same cell number and density as the above experiments and were treated with RC-1, IRC-1, or RNC-1 at the dose of 1.6, 8.0, 40, 200, and 1000 nM for 24 h. After completion of treatment, all the cells were collected and processed for western blot analysis.
The collected cells and spleen tissues were lysed in RIPA lysis buffer (50 mM Tris-HCl, pH 7.4, 150 mM NaCl, 1% NP-40, 0.5% sodium deoxycholate, 0.1% SDS) supplemented with Halt™ Protease and Phosphatase Inhibitor Cocktail (Thermo Fisher Scientific, Cat. No. PI78440) immediately before use. Lysates were centrifuged at 15,000 × g for 10 min at 4 °C and the supernatant was quantified for total protein concentration using the Pierce BCA Protein Assay (Thermo Fisher Scientific, Cat. No. 23225). Thirty micrograms of protein were loaded onto sodium dodecyl sulfate−polyacrylamide gel for electrophoresis (Bio-Rad) and transferred onto PVDF membranes (Millipore, Cat. No. IPVH00010). […] Imaging was performed using the ECL Prime chemiluminescent western blot detection reagents (GE Healthcare, Cat. No. RPN2232) by visualization of the blots to X-Ray film or with an Imager (Kindle Biosciences, Cat. No. D1001). All western blots were subsequently processed and quantified with Imager software. Protein level was normalized to β-actin or GAPDH loading controls.

Mino cells = experiment: AlamarBlue cell viability assay, Mino; type: cell-based; conditions: for Mino Cell Viability%: Figure 2f, 5 replicates; for IC50: Homo sapiens, Mino cells, 72 h, Alamar Blue
Procedure: The IC50 was calculated using GraphPad Prism software with a four-parameter dose-response curve fit.

[1] = Permeability by lipid-PAMPA method (Pharmaron); type: in vitro ADME; conditions: PAMPA; for recovery at 16 h, 10 μM: Recovery%; for Papp at 16 h, 10 μM: pH 7.4
Procedure: The permeability of compounds was measured using Lipid-PAMPA method by Pharmaron. Preparation of stock solutions: testosterone and methotrexate were used as control compounds in this assay. The stock solutions of positive controls were prepared in DMSO or acetonitrile at the concentration of 10 mM. Prepare a stock solution of compounds in DMSO at the concentration of 10 mM, and further dilute with PBS (pH 7.4). […]
Assay procedures: prepare a 1.8% solution (w/v) of lecithin in dodecane, and sonicate the mixture to ensure a complete dissolution. Carefully pipette 5 μL of the lecithin/dodecane mixture into each acceptor plate well (top compartment), avoiding pipette tip contact with the membrane. Immediately after the application of the artificial membrane (within 10 min), add 300 μL of PBS (pH 7.4) solution to each well of the acceptor plate. Add 300 μL of drug-containing solutions to each well of the donor plate (bottom compartment) in triplicate. Slowly and carefully place the acceptor plate into the donor plate, making sure the underside of the membrane is in contact with the drug-containing solutions in all wells. Replace the plate lid and incubate at 25 °C, 60 rpm for 16 h. After incubation, aliquots of 50 μL from each well of acceptor and donor plate are transferred into a 96-well plate. Add 450 μL of methanol (containing IS: 100 nM Alprazolam, 200 nM Caffeine, 100 nM Tolbutamide) into each well. Cover with plate lid. Vortex at 750 rpm for 100 s. Samples were centrifuged at 3220 × g for 20 min. Determine the compound concentrations by LC/MS/MS. The effective permeability (Pe), in units of centimeter per second, can be calculated using the following equation: LogPe=LogC×−Ln1−drugacceptor/drugequilibrium

T1 sequence (Q06187 whole entry C481S): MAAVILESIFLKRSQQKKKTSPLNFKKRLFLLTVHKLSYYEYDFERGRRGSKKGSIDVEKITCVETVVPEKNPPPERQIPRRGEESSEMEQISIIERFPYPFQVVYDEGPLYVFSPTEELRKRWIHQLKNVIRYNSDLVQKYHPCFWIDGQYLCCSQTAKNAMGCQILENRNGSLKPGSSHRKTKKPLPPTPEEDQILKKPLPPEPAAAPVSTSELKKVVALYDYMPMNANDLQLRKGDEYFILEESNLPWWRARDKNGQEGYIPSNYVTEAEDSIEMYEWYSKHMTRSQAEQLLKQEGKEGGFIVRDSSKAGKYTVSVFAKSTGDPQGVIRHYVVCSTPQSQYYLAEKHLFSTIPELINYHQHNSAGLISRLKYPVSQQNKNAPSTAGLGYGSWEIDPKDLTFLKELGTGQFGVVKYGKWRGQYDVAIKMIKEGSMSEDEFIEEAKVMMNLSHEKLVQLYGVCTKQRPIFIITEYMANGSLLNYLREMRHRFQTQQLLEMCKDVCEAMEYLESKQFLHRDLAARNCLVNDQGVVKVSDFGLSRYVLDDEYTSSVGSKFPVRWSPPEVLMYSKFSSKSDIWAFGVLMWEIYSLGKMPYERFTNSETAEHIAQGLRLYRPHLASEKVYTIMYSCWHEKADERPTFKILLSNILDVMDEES

| IC50 (Maver-1) [µM] | recovery at 16 h, 10 μM [1] [%] | Papp at 16 h, 10 μM [1] [×10⁻⁶ cm/s] | SMILES | Cell Viability (%) (Maver-1; 1.25E-06 M) | Cell Viability (%) (Maver-1; 1.56E-07 M) | Cell Viability (%) (Maver-1; 2.50E-06 M) | Cell Viability (%) (Maver-1; 3.13E-07 M) | Cell Viability (%) (Maver-1; 5.00E-06 M) | Cell Viability (%) (Maver-1; 6.25E-07 M) | Cell Viability (%) (Maver-1; 7.81E-08 M) | BTK degradation (in words) (C481S mutant BTK) | Mino Cell Viability% (Mino cells; 1.00E-06 M) | Mino Cell Viability% (Mino cells; 1.60E-09 M) | Mino Cell Viability% (Mino cells; 2.00E-07 M) | Mino Cell Viability% (Mino cells; 3.20E-10 M) | Mino Cell Viability% (Mino cells; 4.00E-08 M) | Mino Cell Viability% (Mino cells; 5.00E-06 M) | Mino Cell Viability% (Mino cells; 8.00E-09 M) | IC50 (Mino cells) [µM] |
| --- | --- | --- | --- | --- | --- | --- | --- | --- | --- | --- | --- | --- | --- | --- | --- | --- | --- | --- | --- |
| – | 17.4 | < 0.0245 | CN(CC=CC(=O)N1CCCC(n2nc(-c3ccc(Oc4ccccc4)cc3)c3c(N)ncnc32)C1)CCCNC(=O)CNc1cccc2c1C(=O)N(C1CCC(=O)NC1=O)C2=O (stereo not drawn) [IRC-1] | – | – | – | – | – | – | – | much more effective degradation of the BTK C481S mutant than its wild-type | – | – | – | – | – | – | – | – |
| – | 30 | < 0.00209 | CN(CCCNC(=O)CNc1cccc2c1C(=O)N(C1CCC(=O)NC1=O)C2=O)CCCC(=O)N1CCCC(n2nc(-c3ccc(Oc4ccccc4)cc3)c3c(N)ncnc32)C1 (stereo not drawn) [RNC-1] | – | – | – | – | – | – | – | – | 58.0853% and 51.9026% and 45.6712% and 52.4594% | 101.95% and 90.6294% and 68.165% and 98.7947% and 93.12% | 37.8282% and 87.963% and 68.8682% and 84.564% and 91.6647% | 102.731% and 88.3341% and 102.301% and 86.4979% and 82.7278% | 90.0141% and 69.2003% and 110.3% and 97.7887% and 98.2185% | 16.067% and 36.4022% and 19.085% and 31.8214% and 33.179% | 96.0404% and 89.3401% and 104.098% and 90.522% and 101.012% | 1 |

The remaining lines, values behind:

| SMILES | IC50 (Maver-1) [µM] | recovery at 16 h, 10 μM [1] [%] | Papp at 16 h, 10 μM [1] [×10⁻⁶ cm/s] | Cell Viability (%) (Maver-1; 1.25E-06 M) | Cell Viability (%) (Maver-1; 1.56E-07 M) | Cell Viability (%) (Maver-1; 2.50E-06 M) | Cell Viability (%) (Maver-1; 3.13E-07 M) | Cell Viability (%) (Maver-1; 5.00E-06 M) | Cell Viability (%) (Maver-1; 6.25E-07 M) | Cell Viability (%) (Maver-1; 7.81E-08 M) | BTK degradation (in words) (C481S mutant BTK) | Mino Cell Viability% (Mino cells; 1.00E-06 M) | Mino Cell Viability% (Mino cells; 1.60E-09 M) | Mino Cell Viability% (Mino cells; 2.00E-07 M) | Mino Cell Viability% (Mino cells; 3.20E-10 M) | Mino Cell Viability% (Mino cells; 4.00E-08 M) | Mino Cell Viability% (Mino cells; 5.00E-06 M) | Mino Cell Viability% (Mino cells; 8.00E-09 M) | IC50 (Mino cells) [µM] |
| --- | --- | --- | --- | --- | --- | --- | --- | --- | --- | --- | --- | --- | --- | --- | --- | --- | --- | --- | --- |
| CN1C(=O)CCC(N2C(=O)c3cccc(NCC(=O)NCCCN(C)C(C)(C)C=C(C#N)C(=O)N4CCCC(n5nc(-c6ccc(Oc7ccccc7)cc6)c6c(N)ncnc65)C4)c3C2=O)C1=O (stereo not drawn) [RC-1-Me] | 4.2 | – | – | 75.2061% and 69.0199% and 79.2231% | 95.5665% and 93.8239% and 93.1905% | 67.4512% and 61.3175% and 56.7459% | 94.477% and 92.288% and 91.2083% | 42.5652% and 49.5981% and 48.479% | 91.2247% and 87.9954% and 86.7647% | 97.0795% and 100.847% and 94.9725% | – | – | – | – | – | – | – | – | – |
| CC(C)(C)C=C(C#N)C(=O)N1CCCC(n2nc(-c3ccc(Oc4ccccc4)cc3)c3c(N)ncnc32)C1 (stereo not drawn) [RC-Ctrl] | > 5 | – | – | 92.5899% and 86.5612% and 87.595% | 103.384% and 106.186% and 101.772% | 81.7599% and 80.9854% and 82.1702% | 99.5605% and 94.4048% and 98.8352% | 60.4937% and 62.4464% and 56.8706% | 97.5323% and 94.4409% and 89.8332% | 103.555% and 102.055% and 101.769% | – | – | – | – | – | – | – | – | – |
| CN(CCCNC(=O)CNc1cccc2c1C(=O)N(C1CCC(=O)NC1=O)C2=O)C(C)(C)C=C(C#N)C(=O)N1CCC[C@@H](n2nc(-c3ccc(Oc4ccccc4)cc3)c3c(N)ncnc32)C1 (stereo partly drawn) [RC-1] | 3.3 | 25.1 | < 0.00692 | 72.3477% and 75.344% and 75.6032% | 94.303% and 94.8872% and 90.9031% | 56.7361% and 58.5739% and 54.2977% | 94.0011% and 92.8623% and 88.8158% | 44.682% and 45.5221% and 44.0945% | 91.7892% and 94.3523% and 87.1487% | 97.5389% and 95.4976% and 96.2656% | dose-dependent BTK degradation; also recorded: degrades both wild-type BTK and the C481S mutant with similar potency | 28.3764% and 24.0469% and 29.6497% and 18.1013% and 27.4262% | 86.471% and 91.0355% and 88.9002% and 84.3749% and 77.1755% | 40.1501% and 37.7601% and 35.1644% and 26.339% and 31.6381% | 96.9028% and 99.5475% and 70.4757% and 81.6714% and 61.4054% | 90.2127% and 74.3055% and 49.5631% and 47.134% and 61.6895% | 17.0239% and 17.5724% and 29.8456% and 19.8449% and 25.2419% | 98.4014% and 91.3588% and 67.7918% and 72.9048% and 65.2157% | 0.08 |
